A short description of one data set: pKa of demiditraz. In kind it is physicochemical. The note with it: weak base. On the procedure:
(§1) […] is also a weak base due to the presence of the imidazole ring. […] An acid modifier (or mixtures thereof) was added to the formulation in a molar equivalent relative to the amount of demiditraz to adjust the pH below 7.5 and reduce or eliminate the nucleophilic reaction between fipronil and demiditraz. The acid modifier includes both weak and strong acids. The weak acids include sugar acids (glyceric, gluconic, ascorbic, tartaric, and the like), carboxylic acid derivatives (mono-, di-, and tri-chloro acetic acid, and mono-, di-, and tri-fluoro acetic acid, benzoic, and the like) and mono-, di-, and tri-carboxylic acids. Non-exclusive examples of monocarboxylic acids include formic, acetic, propionic, butyric, oleic, valeric, caproic, enanthic, caprylic, linoleic, chloroacetic, dichloroacetic, oxalic, benzoic, pelargonic, capric, lauric, myristic, palmitic, stearic, and arachidic acid. Non-exclusive examples of di-carboxylic acids include oxalic, malonic, succinic, fumaric, aldaric, tartaric, glutaric, adipic, maleic, malic, pimelic, suberic, azelaic, sebacic, phthalic, isophtalic, and terephthalic acid. Non-exclusive examples of tri-carboxylic acids include citric, isocitric, aconitic, propane-1,2,3-tricarboxylic, and trimesic acid.

Data set [1] is classed as physicochemical. On the procedure: as §1
The format of data set [2] is physicochemical. On the procedure:
as §1
The addition of the weak acid in the formulation lowered the apparent pH of the formulation to about 6.5 to 7.5, however, fipronil degraded initially by about 5-6% followed by slower degradation to about 10-15% during an accelerated (70°) kinetic study. Strong acids (pka≦2) were added to the formulation to both lower apparent pH to about 2.5 to about 3.5 and to protonate demiditraz to prevent it from potentially acting as a nucleophile against fipronil. Non-exclusive examples of strong acids include inorganic acids (e.g., HCl, HBr, HI, HF, nitric acid, phosphoric acid, boric acid, sulfuric acid, and the like). Other strong acids include sulfonic acid and sulfonic acid derivatives thereof. Non-exclusive examples of sulfonic acid derivatives include methane-, ethane-, p-toluenesulfonic (p-TSA), and dodecylbenzenesulfonic acid. The use of a strong acid, e.g., p-TSA, increased fipronil stability, however, degradation was still about 5% after 12 weeks at 50° C.
The initial instability of fipronil was reduced to about ≦1% during an accelerated (70° C.) 1-week stability study for DPGMME with a strong acid and for NMP with a strong or weak acid.
The source holds these as a separate data set.

Broadly, the pKa is the negative logarithm of the acid dissociation constant. A high value points to a weaker acid or stronger base.

Where two headings read alike, the source gives them in different places.

As to `Cc1cccc([C@H](C)c2ncc[nH]2)c1C` [Demiditraz, demiditraz], the pKa in “pKa of demiditraz” was 7.2.
On to `N#Cc1nn(-c2c(Cl)cc(C(F)(F)F)cc2Cl)c(N)c1[S+]([O-])C(F)(F)F` (centres unmarked) [fipronil], for which the “pH levels at which fipronil degrades rapidly” value in data set [1] is given as “above 7.5”. In data set [2], the Fipronil initial degradation is 5-6%, the “Fipronil slower degradation following the initial one” value was 10-15% and the “Fipronil stability when formulated with demiditraz” value is reported as “unstable”. Moreover, in data set [2] (1 week), the Fipronil degradation is listed as 3-6% and the “Initial instability of fipronil” value is given as at most 1%. For the same compound, the Fipronil degradation entry in data set [2] (12 weeks) is reported as “about 5%”.

Values taken from patent publication US20120316210A1, “TOPICAL ANTIPARASITIC FORMULATIONS” (priority 2010, published 2012).
